Reference: patent US10577378B2, “EIF4A-inhibiting compounds and methods related thereto” (eFFECTOR Therapeutics, Inc., priority 2015, dated 2020)

tested on: MDA-MB-231 human breast cancer cells; test: Cell proliferation assay (CellTiter-Glo, 72 hours treatment); format: cell-based; details: Homo sapiens; MDA-MB-231 cells, 72 hours at 37° C., CellTiter-Glo; read-out: MDA-MB-231 cell proliferation assay (IC50)
Procedure: Human tumor cell lines were cultured in the appropriate media (DMEM and RPMI) supplemented with penicillin G (100 U/ml), streptomycin (100 μg/ml), 10% FBS in a humidified atmosphere of 5% CO2 maintained at 37° C. Exponentially growing cells were seeded at 2,500 cells/well in 96 well plates prior to drug treatment. The following day, cells were treated with either DMSO (vehicle control) or eIF4A inhibitors at the appropriate dose for 72 hours at 37° C. Following compound treatment, cell proliferation was assessed by CellTiter-Glo assay (Promega, Madison Wis.) according to the manufacturer's protocol. Dose-response curves were fitted by non-linear regression (sigmoidal dose response model) using KaleidaGraph (Synergy Software, Reading Pa.) and IC50 values were calculated.
To this end, IC50 values of less than 100 nM are labelled as “+++”, from 100 nM to 1000 nM are labelled as “++”, and greater than 1000 nM are labelled as “+” (NA means “not available”).

Compound | IC50
COc1cncc2c1[C@]1(O)[C@@H](CN)[C@H](CO)[C@@H](c3ccccc3)[C@]1(c1ccc(C#N)cc1)O2 (racemic) [171F, Rac-4-((4bR,5R,6R,7S,7aR)-5-(aminomethyl)-4b-hydroxy-6-(hydroxymethyl)-4-methoxy-7-phenyl-4b,5,6,7-tetrahydro-7aH-cyclopenta[4,5]furo[2,3-c]pyridin-7a-yl)benzonitrile] | 0.1 to 1 µM
COc1nc(C#N)cc2c1[C@]1(O)[C@@H](CN(C)C)[C@H](CO)[C@@H](c3ccccc3)[C@]1(c1ccc(C#N)cc1)O2 (racemic) [210F, Rac-(5aR,6S,7R,8R,8aR)-5a-(4-cyanophenyl)-8-((dimethylamino)methyl)-8a-hydroxy-7-(hydroxymethyl)-1-methoxy-6-phenyl-5a,7,8,8a-tetrahydro-6H-cyclopenta[4,5]furo[3,2-c]pyridine-3-carbonitrile] | < 0.1 µM
N#C[C@@H]1C[C@@H](c2ccccc2)[C@]2(c3ccc(Br)cc3)Oc3cc(Cl)cnc3[C@]12O (racemic) [47F, Rac-(5aR,6S,8S,8aR)-5a-(4-bromophenyl)-3-chloro-8a-hydroxy-6-phenyl-5a,7,8,8a-tetrahydro-6H-cyclopenta[4,5]furo[3,2-b]pyridine-8-carbonitrile] | > 1 µM
COc1cncc2c1[C@]1(O)[C@H](O)[C@H](CN(C)CCF)[C@@H](c3ccccc3)[C@]1(c1ccc(C#N)cc1)O2 (single isomer, unassigned) [248F] | < 0.1 µM
COc1cncc2c1[C@]1(O)[C@H](O)[C@H](CN3CCCC3)[C@@H](c3ccccc3)[C@]1(c1ccc(C#N)cc1)O2 (racemic) [72F, rac-4-((4bS,5R,6S,7S,7aR)-4b,5-dihydroxy-4-methoxy-7-phenyl-6-(pyrrolidin-1-ylmethyl)-4b,5,6,7-tetrahydro-7aH-cyclopenta[4,5]furo[2,3-c]pyridin-7a-yl)benzonitrile] | 0.1 to 1 µM
COc1cncc2c1[C@]1(O)C(CN3CCOCC3)C[C@@H](c3ccccc3)[C@]1(c1ccc(C(F)(F)F)cc1)O2 (mixture of isomers) [289F, Rac-(4bR,7S,7aR)-4-methoxy-5-(morpholinomethyl)-7-phenyl-7a-(4-(trifluoromethyl)phenyl)-5,6,7,7a-tetrahydro-4bH-cyclopenta[4,5]furo[2,3-c]pyridin-4b-ol] | 0.1 to 1 µM
COc1nc(C#N)cc2c1[C@]1(O)[C@H](O)[C@H](CN3CCC(F)(F)CC3)[C@@H](c3ccccc3)[C@]1(c1ccc(C#N)cc1)O2 (racemic) [157Fc, Rac-(5aR,6S,7S,8R,8aS)-5a-(4-cyanophenyl)-7-((4,4-difluoropiperidin-1-yl)methyl)-8,8a-dihydroxy-1-methoxy-6-phenyl-5a,7,8,8a-tetrahydro-6H-cyclopenta[4,5]furo[3,2-c]pyridine-3-carbonitrile] | 0.1 to 1 µM
CCN(CC)C[C@H]1[C@@H](O)[C@@]2(O)c3c(cc(OC)nc3OC)O[C@@]2(c2ccc(C#N)cc2)[C@@H]1c1ccccc1 (racemic) [232F, Rac-4-((5aR,6S,7S,8R,8aS)-7-((diethylamino)methyl)-8,8a-dihydroxy-1,3-dimethoxy-6-phenyl-6,7,8,8a-tetrahydro-5aH-cyclopenta[4,5]furo[3,2-c]pyridin-5a-yl)benzonitrile] | < 0.1 µM
N#Cc1ccc([C@@]23Oc4cc(Cl)cnc4[C@]2(O)[C@@H]2OC(=O)N[C@@H]2[C@H]3c2ccccc2)cc1 (racemic) [54F, Rac-4-((3aR,3bS,8aR,9R,9aR)-6-chloro-3b-hydroxy-2-oxo-9-phenyl-1,2,3a,3b,9,9a-hexahydro-8aH-oxazolo[4″,5″:4′,5′]cyclopenta[1′,2′:4,5]furo[3,2-b]pyridin-8a-yl)benzonitrile] | 0.1 to 1 µM
C[C@H]1[C@@H](O)[C@@]2(O)c3ncc(Cl)cc3O[C@@]2(c2ccc(Br)cc2)[C@@H]1c1ccccc1 (racemic) [57F, Rac-(5aR,6S,7R,8R,8aS)-5a-(4-bromophenyl)-3-chloro-7-methyl-6-phenyl-5a,6,7,8-tetrahydro-8aH-cyclopenta[4,5]furo[3,2-b]pyridine-8,8a-diol] | > 1 µM
